Molecular target: hDGAT2 (Homo sapiens (Human), UniProt Q96PD7)
Assay: DGAT2 Enzymatic Activity Assay (triolein formation, LC/MS/MS)
Type: biochemical
Conditions: Sf-9 membrane prep expressing hDGAT2; 25 μM diolein, 10 μM oleoyl-CoA; room temperature; read-out: IC50 values for inhibition of DGAT2
Experimental: In Vitro DGAT2 ASSAYS and Determination of IC50 Values for DGAT2 Inhibitors
Insect Cell Expression and Membrane Preparation
Sf-9 insect cells were maintained in Grace's insect cell culture medium with 10% heated-inactivated fetal bovine serum, 1% Pluronic F-68 and 0.14 μg/ml Kanamycine sulfate in Erlenmeyer flasks at 28° C. in a shaker incubator. After infection with untagged hDGAT2 baculovirus at multiplicity of infection (MOI) 0.1 for 48 hours, cells were harvested. Cell pellets were suspended in buffer containing 10 mM Tris-HCl (pH 7.5), 1 mM EDTA (pH 8.0), 250 mM sucrose and Complete Protease Inhibitor Cocktail (Roche Diagnostics Corp., Indianapolis, Ill.), and sonicated on ice. Membrane fractions were isolated by ultracentrifugation (100,000× g pellet), resuspended in the same buffer, and frozen (−80° C.) for later use. The protein concentration was determined with the BCA Protein Assay kit (Pierce Biotechnology Inc., Rockford, Ill.). Expression of protein levels was analyzed by immunoblotting with goat polyclonal DGAT2 antibody C-15 and donkey anti-goat IgG HRP (Santa Cruz Biotechnology, Inc., Santa Cruz, Calif.) followed by detection with ECL reagent (GE Healthcare, Piscataway, N.J.).
LC/MS/MS analyses were performed using Thermal Fisher's LX4-TSQ Vantage system. This system consists of an Agilent binary high-performance liquid chromatography (HPLC) pumps and a TSQ Vantage triple quadrupole MS/MS instrument. For each sample, 2 μL samples from the top organic layer of in-plate liquid-liquid extraction were injected onto a Thermo Betabasic C4 column (2.1 mm×20 mm, 5 μm particle size). The samples were then eluted using the following conditions; mobile phase: methanol/water with 0.1% ammonium format=92/8 (v/v), flow rate: 1 mL/min, temperature: 25° C. Data was acquired in positive mode using a heated electrospray ionization (HESI) interface. The operational parameters for the TSQ Vantage MS/MS instrument were a spray voltage of 3000 V, capillary temperature of 280° C., vaporizer temperature 400° C., shealth gas 60 arbitrary unit, Aux gas 40 arbitrary units, S-lens 113 and collision gas 0.16 Pascals. […] (SRM) chromatograms of triolein (Q1: 902.9>Q3:602.3) and internal standard (Q1: 902.9>Q3:602.3) were collected for 40 sec. The peak area was integrated by Xcalibur Quan software. The ratio between the triolein generated in the reaction and spiked in internal standard were used to generate percentage inhibition and IC50 values. Compound percentage inhibition was calculated by the following formula: Inhibition %=1−[(compound response−low control)/(high control−low control)]×100%. Potent compounds were titrated and IC50 were calculated by 4 parameter sigmoidal curve fitting formula.
DGAT2 Enzymatic Activity Assay
DGAT2 activity was determined by measuring the amount of enzymatic product triolein (1,2,3-Tri(cis-9-octadecenoyl)glycerol) using the membrane prep mentioned above. The assay was carried out in deep well 384 plates in a final volume of 40 μL at room temperature. The assay mixture contained the following: assay buffer (100 mM Tris·Cl, pH 7.0, 20 mM MgCl2, 5% ethanol), 25 μM of diolein, 10 μM of oleoyl-CoA and 10 ng/μL of DGAT2 membrane.

Sequence of hDGAT2 (Q96PD7 whole entry): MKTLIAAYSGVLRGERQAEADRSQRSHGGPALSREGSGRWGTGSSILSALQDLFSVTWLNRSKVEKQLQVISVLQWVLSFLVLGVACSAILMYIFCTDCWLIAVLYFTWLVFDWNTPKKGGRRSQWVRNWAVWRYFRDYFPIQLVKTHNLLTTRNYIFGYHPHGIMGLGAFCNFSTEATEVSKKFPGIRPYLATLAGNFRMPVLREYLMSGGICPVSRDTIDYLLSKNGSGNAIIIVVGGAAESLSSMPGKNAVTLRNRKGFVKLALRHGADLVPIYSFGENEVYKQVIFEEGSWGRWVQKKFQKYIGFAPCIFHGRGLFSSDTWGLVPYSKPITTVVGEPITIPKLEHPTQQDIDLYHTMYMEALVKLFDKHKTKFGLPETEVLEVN

SMILES	IC50 [nM]
CC(C)(C)NC(=O)N1CCc2c(-c3cccc(C(F)(F)F)c3)ccc(C(=O)N[C@@H](CO)c3ccc(C(F)(F)F)nc3)c2C1 (racemic) [Example 21, (R/S)-N^2-(tert-butyl)-N^8-(2-hydroxy-1-(6-(trifluoromethyl)pyridin-3-yl)ethyl)-5-(3-(trifluoromethyl)phenyl)-3,4-dihydroisoquinoline-2,8(1H)-dicarboxamide]	214
CC(C)(C)NC(=O)N1CCc2c(-c3cccc(C(F)(F)F)c3)ccc(C(=O)N[C@H]3C[C@@H]3c3ccccc3)c2C1 (relative stereo) [Example 65, N^2-(tert-butyl)-N^8-((trans)-2-phenylcyclopropyl)-5-(3-(trifluoromethyl)phenyl)-3,4-dihydroisoquinoline-2,8(1H)-dicarboxamide]	1020
CC(C)(C)NC(=O)N1CCc2c(-c3cccc(C(F)(F)F)c3)ccc(C(=O)NC[C@H]3C[C@@H]3c3ccccc3)c2C1 (relative stereo) [Example 69, N^2-(tert-butyl)-N^8-(((trans)-2-phenylcyclopropyl)methyl)-5-(3-(trifluoromethyl)phenyl)-3,4-dihydroisoquinoline-2,8(1H)-dicarboxamide]	528
COC(=O)c1cccc(-c2ccc(CNC(=O)C3CCN(c4ccc(C(F)(F)F)cc4)CC3)c3c2CCN(C(=O)NC(C)(C)C)C3)c1 [Example 1, methyl 3-(2-(tert-butylcarbamoyl)-8-((1-(4-(trifluoromethyl)phenyl)piperidine-4-carboxamido)methyl)-1,2,3,4-tetrahydroisoquinolin-5-yl)benzoate]	1.75
COC(=O)c1cccc(-c2ccc(CNC(=O)c3cc(C(C)(C)C)nn3C)c3c2CCN(C(=O)NC(C)(C)C)C3)c1 [Example 3, methyl 3-(8-((3-(tert-butyl)-1-methyl-1H-pyrazole-5-carboxamido)methyl)-2-(tert-butylcarbamoyl)-1,2,3,4-tetrahydroisoquinolin-5-yl)benzoate]	17
CC(C)(C)NC(=O)N1CCc2c(-c3cccc(C(F)(F)F)c3)ccc(C(=O)NCCc3nc4cc(Cl)ccc4[nH]3)c2C1 [Example 6, N^2-(tert-butyl)-N^8-(2-(5-chloro-1H-benzo[d]imidazol-2-yl)ethyl)-5-(3-(trifluoromethyl)phenyl)-3,4-dihydroisoquinoline-2,8(1H)-dicarboxamide]	11.9
CC(C)(C)NC(=O)N1CCc2c(-c3cccc(C(F)(F)F)c3)ccc(C(=O)NCCc3nc4ccccc4[nH]3)c2C1 [Example 9, N^8-(2-(1H-benzo[d]imidazol-2-yl)ethyl)-N^2-(tert-butyl)-5-(3-(trifluoromethyl)phenyl)-3,4-dihydroisoquinoline-2,8(1H)-dicarboxamide]	51.1
CC(C)(C)NC(=O)N1CCc2c(-c3cccc(C(F)(F)F)c3)ccc(C(=O)NCc3cccc4cnccc34)c2C1 [Example 12, N^2-(tert-butyl)-N^8-(isoquinolin-5-ylmethyl)-5-(3-(trifluoromethyl)phenyl)-3,4-dihydroisoquinoline-2,8(1H)-dicarboxamide]	68.6
COc1ccc2nc(CCNC(=O)c3ccc(-c4cccc(OC(F)(F)F)c4)c4c3CN(C(=O)NC(C)(C)C)CC4)[nH]c2c1 [Example 13, N^2-(tert-butyl)-N^8-(2-(6-methoxy-1H-benzo[d]imidazol-2-yl)ethyl)-5-(3-(trifluoromethoxy)phenyl)-3,4-dihydroisoquinoline-2,8(1H)-dicarboxamide]	68.9
CC(C)(C)NC(=O)N1CCc2c(-c3cccc(C(F)(F)F)c3)ccc(C(=O)NCc3ccc4nonc4c3)c2C1 [Example 17, N^8-(benzo[c][1,2,5]oxadiazol-5-ylmethyl)-N^2-(tert-butyl)-5-(3-(trifluoromethyl)phenyl)-3,4-dihydroisoquinoline-2,8(1H)-dicarboxamide]	132
CC(C)(C)NC(=O)N1CCc2c(-c3cccc(C(F)(F)F)c3)ccc(C(=O)NCc3nccc4ccccc34)c2C1 [Example 19, N^2-(tert-butyl)-N^8-(isoquinolin-1-ylmethyl)-5-(3-(trifluoromethyl)phenyl)-3,4-dihydroisoquinoline-2,8(1H)-dicarboxamide]	197

The remaining compounds from weak to strong by IC50, led by results:

IC50 [nM]	SMILES
135	COc1cccc(-c2ccc(CNC(=O)c3nccc4ccccc34)c3c2CCN(C(=O)NC(C)(C)C)C3)c1 [Example 5, N-((2-(tert-butylcarbamoyl)-5-(3-methoxyphenyl)-1,2,3,4-tetrahydroisoquinolin-8-yl)methyl)isoquinoline-1-carboxamide]
133	CC(C)(C)NC(=O)N1CCc2c(-c3cccc(C(F)(F)F)c3)ccc(C(=O)NCCc3cn4ccsc4n3)c2C1 [Example 18, N^2-(tert-butyl)-N^8-(2-(imidazo[2,1-b]thiazol-6-yl)ethyl)-5-(3-(trifluoromethyl)phenyl)-3,4-dihydroisoquinoline-2,8(1H)-dicarboxamide]
126	CC(C)(C)NC(=O)N1CCc2c(-c3cccc(C(F)(F)F)c3)ccc(C(=O)NCc3cccc4ncccc34)c2C1 [Example 16, N^2-(tert-butyl)-N^8-(quinolin-5-ylmethyl)-5-(3-(trifluoromethyl)phenyl)-3,4-dihydroisoquinoline-2,8(1H)-dicarboxamide]
120	Cc1nc2ccccn2c1CNC(=O)c1ccc(-c2cccc(C(F)(F)F)c2)c2c1CN(C(=O)NC(C)(C)C)CC2 [Example 15, N^2-(tert-butyl)-N^8-((2-methylimidazo[1,2-a]pyridin-3-yl)methyl)-5-(3-(trifluoromethyl)phenyl)-3,4-dihydroisoquinoline-2,8(1H)-dicarboxamide]
104	CC(C)(C)NC(=O)N1CCc2c(-c3cccc(OC(F)(F)F)c3)ccc(CNC(=O)c3cc(C(F)(F)F)n[nH]3)c2C1 [Example 2, N-(tert-butyl)-5-(3-(trifluoromethoxy)phenyl)-8-((3-(trifluoromethyl)-1H-pyrazole-5-carboxamido)methyl)-3,4-dihydroisoquinoline-2(1H)-carboxamide]
103	Cc1ccc2[nH]c(CCNC(=O)c3ccc(-c4cccc(C(F)(F)F)c4)c4c3CN(C(=O)NC(C)(C)C)CC4)nc2c1 [Example 14, N^2-(tert-butyl)-N^8-(2-(5-methyl-1H-benzo[d]imidazol-2-yl)ethyl)-5-(3-(trifluoromethyl)phenyl)-3,4-dihydroisoquinoline-2,8(1H)-dicarboxamide]
67.6	CC(C)(C)NC(=O)N1CCc2c(-c3cccc(C(F)(F)F)c3)ccc(C(=O)NCc3cccc4cccnc34)c2C1 [Example 11]
66.9	CC(C)(C)NC(=O)N1CCc2c(-c3cccc(C(F)(F)F)c3)ccc(C(=O)NCc3cncc4ccccc34)c2C1 [Example 10, N^2-(tert-butyl)-N^8-(isoquinolin-4-ylmethyl)-5-(3-(trifluoromethyl)phenyl)-3,4-dihydroisoquinoline-2,8(1H)-dicarboxamide]
41.4	COc1cccc(-c2ccc(CNC(=O)c3cc(C(F)(F)F)n[nH]3)c3c2CCN(C(=O)NC(C)(C)C)C3)c1 [Example 4, N-(tert-butyl)-5-(3-methoxyphenyl)-8-((3-(trifluoromethyl)-1H-pyrazole-5-carboxamido)methyl)-3,4-dihydroisoquinoline-2(1H)-carboxamide]
32.9	CC(C)(C)NC(=O)N1CCc2c(-c3cccc(C(F)(F)F)c3)ccc(C(=O)NCCc3nc4ccc(F)cc4[nH]3)c2C1 [Example 8, N^2-(tert-butyl)-N^8-(2-(5-fluoro-1H-benzo[d]imidazol-2-yl)ethyl)-5-(3-(trifluoromethyl)phenyl)-3,4-dihydroisoquinoline-2,8(1H)-dicarboxamide]
15.9	CC(C)(C)NC(=O)N1CCc2c(-c3cccc(C(F)(F)F)c3)ccc(C(=O)NCCc3nc4cc(Cl)c(Cl)cc4[nH]3)c2C1 [Example 7, N^2-(tert-butyl)-N^8-(2-(5,6-dichloro-1H-benzo[d]imidazol-2-yl)ethyl)-5-(3-(trifluoromethyl)phenyl)-3,4-dihydroisoquinoline-2,8(1H)-dicarboxamide]
